Laboratory results published in PubChem BioAssay AID256 (DTP/NCI, 2004).
Inconclusive results and toxic doses are left out. The calls were made as follows: active = survival T/C of 150% or more; inactive = T/C below 125% in these data.

System: CD2F1 mice, L1210 leukemia ip, survival T/C
Experiment: NCI In Vivo Anticancer Drug Screen. Data for tumor model L1210 Leukemia (intraperitoneal) in CD2F1 (CDF1) mice
Settings: higher = longer survival
Summary of the method: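 Antitumor effect is scored in animals hosting a serially transplanted tumor. Values compare compound-dosed animals against vehicle-only controls as a simple quotient.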

[1] = endpoint: mean survival time, dose: 100.0 mg/kg/injection, schedule: Q04DX002 (ip), vehicle: saline with Tween-80
[2] = endpoint: mean survival time, dose: 200.0 mg/kg/injection, schedule: Q04DX002 (ip), vehicle: saline with Tween-80
[3] = endpoint: mean survival time, dose: 400.0 mg/kg/injection, schedule: Q04DX002 (ip), vehicle: saline with Tween-80
[4] = endpoint: mean survival time, dose: 100.0 mg/kg/injection, schedule: Q04DX003 (ip), vehicle: saline
[5] = endpoint: mean survival time, dose: 200.0 mg/kg/injection, schedule: Q04DX003 (ip), vehicle: saline
[6] = endpoint: mean survival time, dose: 50.0 mg/kg/injection, schedule: Q01DX009 (ip), vehicle: saline with Tween-80
[7] = endpoint: mean survival time, dose: 100.0 mg/kg/injection, schedule: Q01DX009 (ip), vehicle: saline with Tween-80
[8] = endpoint: mean survival time, dose: 200.0 mg/kg/injection, schedule: Q01DX009 (ip), vehicle: saline with Tween-80
[9] = endpoint: mean survival time, dose: 100.0 mg/kg/injection, schedule: Q04DX003 (ip), vehicle: saline with Tween-80
[10] = endpoint: mean survival time, dose: 200.0 mg/kg/injection, schedule: Q04DX003 (ip), vehicle: saline with Tween-80
[11] = endpoint: mean survival time, dose: 400.0 mg/kg/injection, schedule: Q04DX003 (ip), vehicle: saline with Tween-80
[12] = endpoint: mean survival time, dose: 12.5 mg/kg/injection, schedule: Q04DX003 (ip), vehicle: saline with Tween-80
[13] = endpoint: mean survival time, dose: 25.0 mg/kg/injection, schedule: Q04DX003 (ip), vehicle: saline with Tween-80

Measured: T/C

CCOC(=O)C1C(=O)N(c2ccccc2)C(=O)N1c1ccccc1 (stereo unspecified)
inactive: endpoint: mean survival time, dose: 12.5 mg/kg/injection, schedule: Q01DX009 (ip), vehicle: other 89 % of control | endpoint: mean survival time, dose: 25.0 mg/kg/injection, schedule: Q01DX009 (ip), vehicle: other 89 % of control | endpoint: mean survival time, dose: 50.0 mg/kg/injection, schedule: Q01DX009 (ip), vehicle: other 103 % of control | endpoint: mean survival time, dose: 100.0 mg/kg/injection, schedule: Q01DX009 (ip), vehicle: other 93 % of control | endpoint: mean survival time, dose: 200.0 mg/kg/injection, schedule: Q01DX009 (ip), vehicle: other 98 % of control

COc1ccc2c(c1)CCC1C(=O)NN=C21 (stereo unspecified)
inactive: [1] 103 % of control | [2] 103 % of control | [3] 103 % of control

Cn1c(=O)c2c(ncn2C)n(C)c1=O.[Cl][Pt]([Cl])[Cl]
inactive: endpoint: mean survival time, dose: 3.13 mg/kg/injection, schedule: Q04DX003 (ip), vehicle: saline 112 % of control | endpoint: mean survival time, dose: 3.13 mg/kg/injection, schedule: Q04DX003 (ip), vehicle: water 98 % of control | endpoint: mean survival time, dose: 6.25 mg/kg/injection, schedule: Q04DX003 (ip), vehicle: saline 104 % of control | endpoint: mean survival time, dose: 6.25 mg/kg/injection, schedule: Q04DX003 (ip), vehicle: water 95 % of control | endpoint: mean survival time, dose: 12.5 mg/kg/injection, schedule: Q04DX003 (ip), vehicle: saline 106 % of control | endpoint: mean survival time, dose: 12.5 mg/kg/injection, schedule: Q04DX003 (ip), vehicle: water 104 % of control | endpoint: mean survival time, dose: 25.0 mg/kg/injection, schedule: Q04DX003 (ip), vehicle: saline 102 % of control | endpoint: mean survival time, dose: 25.0 mg/kg/injection, schedule: Q04DX003 (ip), vehicle: water 102 % of control | endpoint: mean survival time, dose: 50.0 mg/kg/injection, schedule: Q04DX003 (ip), vehicle: saline 106 % of control | endpoint: mean survival time, dose: 50.0 mg/kg/injection, schedule: Q04DX003 (ip), vehicle: water 104 % of control | [4] 112 % of control | endpoint: mean survival time, dose: 100.0 mg/kg/injection, schedule: Q04DX003 (ip), vehicle: water 118 % of control | [5] 111 % of control

COc1ccc(-c2c(O)c3c(OC)cc(OC)cc3oc2=O)cc1
inactive: [6] 100 % of control | [7] 93 % of control | [8] 103 % of control

O=C(Cl)C1CCCCC1
inactive: endpoint: mean survival time, dose: 100.0 mg/kg/injection, schedule: Q01DX001 (ip), vehicle: saline with Tween-80 93 % of control | endpoint: mean survival time, dose: 200.0 mg/kg/injection, schedule: Q01DX001 (ip), vehicle: saline with Tween-80 97 % of control | endpoint: mean survival time, dose: 400.0 mg/kg/injection, schedule: Q01DX001 (ip), vehicle: saline with Tween-80 89 % of control

CCCCCCCCCCNCCC(=O)O
inactive: endpoint: mean survival time, dose: 37.5 mg/kg/injection, schedule: Q04DX003 (ip), vehicle: saline 97 % of control | endpoint: mean survival time, dose: 75.0 mg/kg/injection, schedule: Q04DX003 (ip), vehicle: saline 94 % of control | endpoint: mean survival time, dose: 150.0 mg/kg/injection, schedule: Q04DX003 (ip), vehicle: saline 97 % of control

COc1cc(C(Cl)C2OC(CO)C(O)C2O)nc(C)n1 (stereo unspecified)
inactive: endpoint: median survival time, dose: 18.38 mg/kg/injection, schedule: Q01DX005 (ip), vehicle: saline 110 % of control | endpoint: median survival time, dose: 26.0 mg/kg/injection, schedule: Q01DX005 (ip), vehicle: saline 103 % of control | endpoint: median survival time, dose: 36.75 mg/kg/injection, schedule: Q01DX005 (ip), vehicle: saline 97 % of control | endpoint: median survival time, dose: 52.0 mg/kg/injection, schedule: Q01DX005 (ip), vehicle: saline 102 % of control | endpoint: median survival time, dose: 73.5 mg/kg/injection, schedule: Q01DX005 (ip), vehicle: saline 100 % of control | endpoint: median survival time, dose: 104.0 mg/kg/injection, schedule: Q01DX005 (ip), vehicle: saline 107 % of control | endpoint: median survival time, dose: 147.0 mg/kg/injection, schedule: Q01DX005 (ip), vehicle: saline 103 % of control | endpoint: median survival time, dose: 208.0 mg/kg/injection, schedule: Q01DX005 (ip), vehicle: saline 101 % of control

COC(=O)C1c2cc3c(c(O)c2CCC1(C)O)C(=O)c1c(O)cc2c(c1C3=O)OC1OC2(C)C(O)C(N(C)C)C1O (stereo unspecified)
inactive: endpoint: mean survival time, dose: 100.0 mg/kg/injection, schedule: Q01DX001 (ip), vehicle: saline 103 % of control | endpoint: mean survival time, dose: 200.0 mg/kg/injection, schedule: Q01DX001 (ip), vehicle: saline 104 % of control | endpoint: mean survival time, dose: 400.0 mg/kg/injection, schedule: Q01DX001 (ip), vehicle: saline 104 % of control

CCOC(=O)c1c(C)cc(O)cc1O
inactive: [9] 95 % of control | [10] 95 % of control | [11] 95 % of control

O=C1O/C(=C\c2ccccc2)c2ccccc21
inactive: [4] 104 % of control | [5] 104 % of control | endpoint: mean survival time, dose: 400.0 mg/kg/injection, schedule: Q04DX003 (ip), vehicle: saline 98 % of control

O=Cc1cc([N+](=O)[O-])cc(CCl)c1O
inactive: endpoint: mean survival time, dose: 25.0 mg/kg/injection, schedule: Q01DX009 (ip), vehicle: Klucel (hydroxypropylcellulose) (HPC) 95 % of control | endpoint: mean survival time, dose: 50.0 mg/kg/injection, schedule: Q01DX009 (ip), vehicle: Klucel (hydroxypropylcellulose) (HPC) 95 % of control | endpoint: mean survival time, dose: 100.0 mg/kg/injection, schedule: Q01DX009 (ip), vehicle: Klucel (hydroxypropylcellulose) (HPC) 101 % of control

CCOC(=O)c1cc(CO)nc2c(Cl)cc(Cl)cc12
inactive: [7] 91 % of control | [9] 93 % of control | [8] 90 % of control | [10] 90 % of control | endpoint: mean survival time, dose: 400.0 mg/kg/injection, schedule: Q01DX009 (ip), vehicle: saline with Tween-80 90 % of control | [11] 93 % of control

CCCCCCCCCCCC(C)(O)C#N (stereo unspecified)
inactive: endpoint: mean survival time, dose: 100.0 mg/kg/injection, schedule: Q04DX002 (ip), vehicle: saline 96 % of control | endpoint: mean survival time, dose: 200.0 mg/kg/injection, schedule: Q04DX002 (ip), vehicle: saline 92 % of control | endpoint: mean survival time, dose: 400.0 mg/kg/injection, schedule: Q04DX002 (ip), vehicle: saline 100 % of control

CCOC(=O)C([NH-])C([NH-])C(=O)OCC.[Cl][Pt+2][Cl] (stereo unspecified)
active: [12] 186 % of control | [13] 195 % of control

C=C(C)CCNc1ncnc2nc[nH]c12
inactive: [9] 97 % of control | [10] 101 % of control | [11] 95 % of control

CN(c1ccccc1Cl)S(C)(=O)=O
inactive: [9] 98 % of control | [10] 97 % of control | [11] 90 % of control

O=C(O)C1CCC=CCC1
inactive: endpoint: mean survival time, dose: 100.0 mg/kg/injection, schedule: Q04DX003 (ip), vehicle: other 103 % of control | endpoint: mean survival time, dose: 200.0 mg/kg/injection, schedule: Q04DX003 (ip), vehicle: other 94 % of control | endpoint: mean survival time, dose: 400.0 mg/kg/injection, schedule: Q04DX003 (ip), vehicle: other 89 % of control

O=C(Nc1ccc(Cl)c(Cl)c1)C(Cl)(Cl)Cl
inactive: endpoint: mean survival time, dose: 100.0 mg/kg/injection, schedule: Q01DX009 (ip), vehicle: saline + alcohol 91 % of control | endpoint: mean survival time, dose: 200.0 mg/kg/injection, schedule: Q01DX009 (ip), vehicle: saline + alcohol 89 % of control | endpoint: mean survival time, dose: 400.0 mg/kg/injection, schedule: Q01DX009 (ip), vehicle: saline + alcohol 91 % of control

C=C(CC)C1(C)C(=O)NC(=O)NC1=O
inactive: endpoint: mean survival time, dose: 75.0 mg/kg/injection, schedule: Q01DX001 (ip), vehicle: saline 95 % of control | endpoint: mean survival time, dose: 150.0 mg/kg/injection, schedule: Q01DX001 (ip), vehicle: saline 97 % of control | endpoint: mean survival time, dose: 300.0 mg/kg/injection, schedule: Q01DX001 (ip), vehicle: saline 101 % of control

NC(CCC(=O)OCc1ccccc1)C(=O)OCc1ccccc1 (stereo unspecified)
inactive: endpoint: mean survival time, dose: 50.0 mg/kg/injection, schedule: Q01DX009 (ip), vehicle: saline 106 % of control | endpoint: mean survival time, dose: 100.0 mg/kg/injection, schedule: Q01DX009 (ip), vehicle: saline 93 % of control | [4] 97 % of control | endpoint: mean survival time, dose: 200.0 mg/kg/injection, schedule: Q01DX009 (ip), vehicle: saline 87 % of control | [5] 108 % of control

O=C(Nc1ccccn1)OCc1ccccc1
inactive: [1] 112 % of control | [2] 101 % of control | [3] 97 % of control

Brc1ccc([I+]c2ccc(Br)cc2)cc1
inactive: [12] 105 % of control | [13] 95 % of control | endpoint: mean survival time, dose: 50.0 mg/kg/injection, schedule: Q04DX003 (ip), vehicle: saline with Tween-80 101 % of control | [11] 94 % of control

CC(=O)OC(C)Cc1ccccc1 (stereo unspecified)
inactive: [6] 96 % of control | [7] 96 % of control | [8] 100 % of control
